Converted amounts (≈) assume the structure as drawn. Where a SMILES comes first, the peptide text is derived from it. The star is where a group is joined. Octanoyl = CCCCCCCC(=O)*; Butyryl = CCCC(=O)*
Assays:
[1] = test system: S. aureus ATCC 12598; assay type: cell-based, Staphylococcus aureus; details: ATCC 12598, 18 h
Protocol: (§1) Tests of the antibacterial activity were carried out as we just described. Briefly, for assays, the following strains of ESKAPE bacteria were chosen: Acinetobacter baumannii ATCC BAA-1605, Enterococcus faecium ATCC 700221, Klebsiella aerogenes ATCC 13048 (formerly Enterobacter aerogenes), Klebsiella pneumoniae ATCC 700603, and Pseudomonas aeruginosa ATCC 9027. Moreover, the reference strains of Staphylococcus aureus were used: S. aureus ATCC 25923, S. aureus ATCC 6538, S. aureus ATCC 33591 (MRSA), S. aureus ATCC 9144, and S. aureus ATCC 12598. Before experiments, all the strains were stored at −80 °C in Roti®-Store cryo vials (Carl Roth GmbH, Karlsruhe, Germany). To evaluate the activity of the compounds, bacteria were transferred into fresh Mueller–Hinton medium (Becton Dickinson, Warszawa, Poland) and incubated for 24 h at 37 °C. In the next step, bacterial inoculums were seeded on Mueller–Hinton agar plates (BioMaxima SA, Lublin, Poland) and incubated again for 24 h. The MIC values were determined using the broth microdilution method according to the Clinical and Laboratory Standards Institute Protocol. The initial inoculums of bacteria (0.5 × 10^5 colony forming units (CFU)/mL) prepared in Mueller–Hinton broth were exposed to the ranging concentrations of peptides (1–512 µg/mL). The experiments were conducted on 96-well microtiter plates, with a final volume of 100 µL. The inoculum densities were checked spectrophotometrically (Multiskan™ GO Microplate Spectrophotometer, Thermo Scientific, Waltham, MA, USA) at 600 nm. The results were read after incubation for 18 h at 37 °C. The MIC values were the lowest concentration at which a visible growth of microorganisms was inhibited. All experiments were conducted in triplicate. Moreover, positive (growth) and negative (sterility) controls were included.

[2] = test system: S. aureus ATCC 25923; assay type: cell-based, Staphylococcus aureus; details: ATCC 25923, 18 h
Protocol: as §1

[3] = test system: S. aureus ATCC 6538; assay type: cell-based, Staphylococcus aureus; details: ATCC 6538, 18 h
Protocol: as §1

[4] = test system: S. aureus ATCC 9144; assay type: cell-based, Staphylococcus aureus; details: ATCC 9144, 18 h
Protocol: as §1

[5] = test system: S. aureus ATCC 33591 (MRSA); assay type: cell-based, Staphylococcus aureus; details: ATCC 33591, 18 h
Protocol: as §1

[6] = test system: human red blood cells (hRBCs); test: Hemolysis assay; details: for MHC5 (minimum hemolytic concentration causing 5% hemolysis of hRBCs): 4% (v/v) erythrocytes in PBS, peptides 1–512 µg/mL, 1 h at 37 °C, hemoglobin at 540 nm, 100% = 1% Triton-X 100, ≥ means less than 5% hemolysis up to 512 µg/mL
Protocol: To facilitate a comparison of hemolytic activity between the analogs, MHC5 values were determined. MHC5 is the minimum hemolytic concentration of the compounds that caused the 5% hemolysis of hRBCs.
Briefly, the fresh hRBCs with EDTA as anticoagulant were rinsed three times with PBS through centrifugation at 800× g for 10 min and resuspended in PBS. The serial dilution of peptides (1–512 µg/mL) was prepared in PBS on 96-well plates. Then, the stock RBCs solution was added to the plates to reach a final volume of 100 µL with a 4% concentration of erythrocytes (v/v). The control wells for 0 (RBCs in PBS) and 100% (RBCs in 1% Triton-X 100) hemolysis were also prepared. Then, the plates were incubated for 1 h at 37 °C and centrifuged at 800× g for 10 min at 4 °C (Sorvall ST 16R Centrifuge, Thermo Scientific, Waltham, MA, USA). After centrifugation, the supernatant was carefully transferred to new microtiter plates and the release of hemoglobin was measured at 540 nm (Multiskan™ GO Microplate Spectrophotometer, Thermo Scientific, Waltham, MA, USA). The percentage of hemolysis was calculated based on wells with 100% hemolysis.

[7] = test system: Pseudomonas aeruginosa ATCC 9027; assay type: cell-based; details: ATCC 9027, 18 h
Protocol: as §1

[8] = test system: Enterococcus faecium ATCC 700221; assay type: cell-based; details: ATCC 700221, 18 h
Protocol: as §1

[9] = test system: Klebsiella aerogenes ATCC 13048; assay type: cell-based; details: ATCC 13048, 18 h
Protocol: as §1

[10] = test system: Klebsiella pneumoniae ATCC 700603; assay type: cell-based; details: ATCC 700603, 18 h
Protocol: as §1

[11] = 18 h

Structure (SMILES): CCCCCCCC(=O)NCCCC[C@H](NC(=O)[C@@H](NC(=O)[C@H](CCCNC(=N)N)NC(=O)[C@H](CCC(N)=O)NC(=O)[C@@H](NC(=O)[C@@H](NC(=O)[C@H](CCCNC(=N)N)NC(=O)[C@@H](N)CCCCN)[C@@H](C)CC)C(C)C)[C@@H](C)CC)C(=O)N[C@@H](CC(=O)O)C(=O)N[C@@H](Cc1ccccc1)C(=O)N[C@@H](CC(C)C)C(=O)N[C@@H](CCCNC(=N)N)C(N)=O [VIII, [Lys^ε(C8)]^8KR12-NH2] (H-KRIVQRIK(Octanoyl)DFLR-NH2)
- MIC S. aureus 12598 [1]: 32 µg/mL (≈ 18.9 µM)
- MIC S. aureus 25923 [2]: 32 µg/mL (≈ 18.9 µM)
- MIC S. aureus 6538 [3]: 4 µg/mL (≈ 2.36 µM)
- MIC S. aureus 9144 [4]: 16 µg/mL (≈ 9.43 µM)
- MIC S. aureus 33591 [5]: 32 µg/mL (≈ 18.9 µM)
- MHC5 (minimum hemolytic concentration causing 5% hemolysis of hRBCs) [6]: 64 µg/mL
- MIC P. aeruginosa [7]: 64 µg/mL (≈ 37.7 µM)
- MIC E. faecium [8]: 8 µg/mL (≈ 4.71 µM)
- MIC K. aerogenes [9]: 32 µg/mL (≈ 18.9 µM)
- MIC K. pneumoniae [10]: 32 µg/mL (≈ 18.9 µM)
- MIC A. baumannii [11]: 8 µg/mL (≈ 4.71 µM)

Structure (SMILES): CCCC(=O)NCCCC[C@H](NC(=O)CCC)C(=O)N[C@@H](CCCNC(=N)N)C(=O)N[C@H](C(=O)N[C@H](C(=O)N[C@@H](CCC(N)=O)C(=O)N[C@@H](CCCNC(=N)N)C(=O)N[C@H](C(=O)N[C@@H](CCCCN)C(=O)N[C@@H](CC(=O)O)C(=O)N[C@@H](Cc1ccccc1)C(=O)N[C@@H](CC(C)C)C(=O)N[C@@H](CCCNC(=N)N)C(N)=O)[C@@H](C)CC)C(C)C)[C@@H](C)CC [X, C4^α, C4^ε-KR12-NH2] (Butyryl-K(Butyryl)RIVQRIKDFLR-NH2)
- MIC S. aureus 12598 [1]: 512 µg/mL (≈ 299 µM)
- MIC S. aureus 25923 [2]: 128 µg/mL (≈ 74.8 µM)
- MIC S. aureus 6538 [3]: 32 µg/mL (≈ 18.7 µM)
- MIC S. aureus 9144 [4]: 256 µg/mL (≈ 150 µM)
- MIC S. aureus 33591 [5]: 512 µg/mL (≈ 299 µM)
- Hemolytic effect over the studied concentration range ([6]; hRBCs, concentration range up to 512 µg/mL, significant = >5% hemolysis): did not induce any significant hemolysis (>5%)
- MIC P. aeruginosa [7]: >512 µg/mL
- MIC E. faecium [8]: 32 µg/mL (≈ 18.7 µM)
- MIC K. aerogenes [9]: 256 µg/mL (≈ 150 µM)
- MIC K. pneumoniae [10]: 512 µg/mL (≈ 299 µM)
- MIC A. baumannii [11]: 128 µg/mL (≈ 74.8 µM)

Structure (SMILES): CCCCCCCC(=O)N[C@@H](CCCNC(=N)N)C(=O)N[C@@H](CC(C)C)C(=O)N[C@@H](Cc1ccccc1)C(=O)N[C@@H](CC(=O)O)C(=O)N[C@@H](CCCCN)C(=O)N[C@H](C(=O)N[C@@H](CCCNC(=N)N)C(=O)N[C@@H](CCC(N)=O)C(=O)N[C@H](C(=O)N[C@H](C(=O)N[C@@H](CCCNC(=N)N)C(=O)N[C@@H](CCCCN)C(N)=O)[C@@H](C)CC)C(C)C)[C@@H](C)CC [XII, C8^α-retro-KR12-NH2] (Octanoyl-RLFDKIRQVIRK-NH2)
- MIC S. aureus 12598 [1]: 32 µg/mL (≈ 18.9 µM)
- MIC S. aureus 25923 [2]: 32 µg/mL (≈ 18.9 µM)
- MIC S. aureus 6538 [3]: 8 µg/mL (≈ 4.71 µM)
- MIC S. aureus 9144 [4]: 32 µg/mL (≈ 18.9 µM)
- MIC S. aureus 33591 [5]: 32 µg/mL (≈ 18.9 µM)
- MHC5 (minimum hemolytic concentration causing 5% hemolysis of hRBCs) [6]: ≥512 µg/mL
- MIC P. aeruginosa [7]: 64 µg/mL (≈ 37.7 µM)
- MIC E. faecium [8]: 8 µg/mL (≈ 4.71 µM)
- MIC K. aerogenes [9]: 256 µg/mL (≈ 151 µM)
- MIC K. pneumoniae [10]: 128 µg/mL (≈ 75.4 µM)
- MIC A. baumannii [11]: 64 µg/mL (≈ 37.7 µM)

Source: article PMC10053710, “Influence of Lipidation Pattern of the KR12 Fragment of Peptide LL-37 on Its Antibacterial and Hemolytic Activities” (International Journal of Molecular Sciences, 2023)
